The values below come from patent US10519141B2, “Pyrimidine compound and pharmaceutical use thereof” (HANMI PHARM. CO., LTD., priority 2017, dated 2019).

The test system of one test is RS4-11 cell line. The experiment in a line: Inhibitory activity in cell growth, MTS test, RS4-11. Type of test: cell-based. To be noted: Homo sapiens, 72 h, incubation three days. The procedure: RS4-11 cell line was incubated in an RPMI1640 culture medium (10% fetal bovine serum (FBS)) at a temperature of 37° C. The incubated cell line was prepared in an amount of 2.0×10^4 cells/100 μL, and then plated on 96-well plates. The RPMI1640 medium was serially diluted with the test compounds at a concentration in a range of 10 μM to 0.1 nM at a ratio of 1/10. Subsequently, incubation was performed thereon for three days. An MTS test was performed to measure cell viability, and the 50% growth inhibition (GI50) value of the cell line was calculated using GraphPad Prism software.
(Tetrazolium dyes change colour on reduction, which living cells bring about.)

The target of a further test is T1, NUAK1 (ARK5) kinase (Homo sapiens, UniProt O60285).
T1 construct: purchased Life Technologies
T1 sequence (O60285 1-661): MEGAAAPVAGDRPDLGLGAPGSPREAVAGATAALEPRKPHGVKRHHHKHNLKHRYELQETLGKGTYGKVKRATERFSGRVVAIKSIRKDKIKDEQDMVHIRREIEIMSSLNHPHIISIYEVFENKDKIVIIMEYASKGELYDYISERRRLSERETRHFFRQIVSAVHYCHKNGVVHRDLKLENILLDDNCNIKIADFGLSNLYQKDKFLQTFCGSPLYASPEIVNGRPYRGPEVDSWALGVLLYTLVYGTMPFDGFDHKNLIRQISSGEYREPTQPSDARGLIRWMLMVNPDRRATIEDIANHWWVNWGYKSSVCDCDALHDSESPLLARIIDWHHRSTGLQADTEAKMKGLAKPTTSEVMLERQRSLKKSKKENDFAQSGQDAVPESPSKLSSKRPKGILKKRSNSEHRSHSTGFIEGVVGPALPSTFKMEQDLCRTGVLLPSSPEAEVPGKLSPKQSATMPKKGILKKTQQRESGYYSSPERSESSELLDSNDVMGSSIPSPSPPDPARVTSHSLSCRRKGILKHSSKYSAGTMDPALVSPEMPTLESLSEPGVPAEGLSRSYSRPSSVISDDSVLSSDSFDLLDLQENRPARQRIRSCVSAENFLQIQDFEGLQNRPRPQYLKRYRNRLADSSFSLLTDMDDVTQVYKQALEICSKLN
The experiment in a line: Adapta Universal kinase assay, inhibitory activity for NUAK1 kinase. To be noted: compound concentration of 100 nM, read-out: Degree of inhibition (%). Type of test: biochemical. The procedure: (§1) Inhibitory activity of the exemplary compounds among the foregoing compounds with respect to AXL, CLK2, VEGFR2 (KDR), NUAK1 kinases were measured. Z'-LYTE™ Kinase Assay Kit-Tyr 6 Peptide (Cat. No. PV4122, available from Life Technologies) for AXL, Z'-LYTE™ Kinase Assay Kit-Ser/Thr peptide 6 (Cat. No. PV3179, available from Life Technologies) for CLK2, Z'-LYTE™ Kinase Assay Kit (Cat. No. PV3190, available from Life Technologies) for VEGFR, and Adapta™ Universal Kinase Assay Kit (Cat. No. PV5099, available from Life Technologies) for NUAK1(ARK5) were used. The experiments were carried out by Life Technologies corporation.

The target of another test is T2, AXL kinase (Homo sapiens, UniProt P30530).
T2 construct: purchased Life Technologies
T2 sequence (P30530 26-894): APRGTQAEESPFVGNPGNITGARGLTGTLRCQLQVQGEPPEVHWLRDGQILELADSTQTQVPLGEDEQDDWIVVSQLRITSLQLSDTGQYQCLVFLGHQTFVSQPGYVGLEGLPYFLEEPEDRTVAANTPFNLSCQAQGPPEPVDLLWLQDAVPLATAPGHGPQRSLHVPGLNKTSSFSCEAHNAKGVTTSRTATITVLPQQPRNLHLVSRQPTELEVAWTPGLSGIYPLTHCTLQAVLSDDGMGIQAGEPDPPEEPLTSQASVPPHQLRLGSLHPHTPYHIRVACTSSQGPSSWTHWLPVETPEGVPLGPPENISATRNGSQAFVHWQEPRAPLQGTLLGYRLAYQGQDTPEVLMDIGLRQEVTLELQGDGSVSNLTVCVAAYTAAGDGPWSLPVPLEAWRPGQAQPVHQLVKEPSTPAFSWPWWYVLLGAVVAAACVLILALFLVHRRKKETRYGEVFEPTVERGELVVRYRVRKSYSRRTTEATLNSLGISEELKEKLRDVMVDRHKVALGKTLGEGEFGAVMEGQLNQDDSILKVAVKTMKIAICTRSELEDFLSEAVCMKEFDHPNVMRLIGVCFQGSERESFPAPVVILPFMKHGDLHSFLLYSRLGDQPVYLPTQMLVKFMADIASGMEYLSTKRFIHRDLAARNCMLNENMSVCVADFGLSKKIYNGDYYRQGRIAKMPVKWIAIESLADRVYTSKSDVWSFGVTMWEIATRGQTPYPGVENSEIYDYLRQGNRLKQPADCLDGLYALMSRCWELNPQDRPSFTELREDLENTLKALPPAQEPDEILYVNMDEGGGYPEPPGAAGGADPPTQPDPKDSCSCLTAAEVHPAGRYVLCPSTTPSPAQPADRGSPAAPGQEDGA
The experiment in a line: Z'-LYTE kinase assay, inhibitory activity for AXL kinase. The class given is biochemical. To be noted: compound concentration of 100 nM, read-out: Degree of inhibition (%). The procedure: as §1

For a further test, the target named is T3, VEGFR2 (KDR) kinase (Homo sapiens, UniProt P35968).
T3 construct: purchased Life Technologies
T3 sequence (P35968 20-1356): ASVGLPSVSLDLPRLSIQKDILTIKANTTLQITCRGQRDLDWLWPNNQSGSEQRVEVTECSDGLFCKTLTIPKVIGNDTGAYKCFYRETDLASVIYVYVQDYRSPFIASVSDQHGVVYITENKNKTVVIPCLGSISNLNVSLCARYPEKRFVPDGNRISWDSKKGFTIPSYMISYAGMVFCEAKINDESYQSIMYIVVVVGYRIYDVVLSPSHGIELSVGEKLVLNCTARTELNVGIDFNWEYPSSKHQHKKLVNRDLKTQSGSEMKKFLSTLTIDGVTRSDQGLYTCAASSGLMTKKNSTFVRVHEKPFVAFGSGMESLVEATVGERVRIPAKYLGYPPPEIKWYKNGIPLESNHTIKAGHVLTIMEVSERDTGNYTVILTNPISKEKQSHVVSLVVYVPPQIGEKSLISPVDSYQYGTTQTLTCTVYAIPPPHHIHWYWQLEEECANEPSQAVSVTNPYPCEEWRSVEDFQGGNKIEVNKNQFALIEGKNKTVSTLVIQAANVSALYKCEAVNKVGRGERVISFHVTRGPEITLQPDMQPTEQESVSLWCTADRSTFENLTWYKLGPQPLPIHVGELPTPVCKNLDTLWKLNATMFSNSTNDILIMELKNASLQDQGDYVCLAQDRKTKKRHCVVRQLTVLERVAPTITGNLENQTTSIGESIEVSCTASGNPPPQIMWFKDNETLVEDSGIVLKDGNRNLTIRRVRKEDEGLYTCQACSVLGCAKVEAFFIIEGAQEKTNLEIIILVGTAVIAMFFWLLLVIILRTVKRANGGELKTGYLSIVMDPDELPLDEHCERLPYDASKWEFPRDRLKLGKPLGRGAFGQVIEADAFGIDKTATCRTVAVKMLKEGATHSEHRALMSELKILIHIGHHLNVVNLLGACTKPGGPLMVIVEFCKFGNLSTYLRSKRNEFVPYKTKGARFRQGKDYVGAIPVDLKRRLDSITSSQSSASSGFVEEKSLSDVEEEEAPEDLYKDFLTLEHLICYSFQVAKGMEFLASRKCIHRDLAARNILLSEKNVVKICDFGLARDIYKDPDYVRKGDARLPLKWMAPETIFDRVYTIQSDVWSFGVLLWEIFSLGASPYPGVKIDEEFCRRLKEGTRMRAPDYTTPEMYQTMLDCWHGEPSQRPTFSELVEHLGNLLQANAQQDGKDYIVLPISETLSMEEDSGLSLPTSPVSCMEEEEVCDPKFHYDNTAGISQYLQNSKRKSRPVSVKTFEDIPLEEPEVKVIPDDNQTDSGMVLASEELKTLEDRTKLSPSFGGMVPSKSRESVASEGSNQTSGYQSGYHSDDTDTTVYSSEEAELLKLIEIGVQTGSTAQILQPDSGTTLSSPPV
The experiment in a line: Z'-LYTE kinase assay, inhibitory activity for VEGFR2 kinase. Type of test: biochemical. To be noted: compound concentration of 100 nM, read-out: Degree of inhibition (%). The protocol: as §1

In another test the target is T4, CLK2 kinase (Homo sapiens, UniProt P49760).
T4 construct: purchased Life Technologies
T4 sequence (P49760 whole entry): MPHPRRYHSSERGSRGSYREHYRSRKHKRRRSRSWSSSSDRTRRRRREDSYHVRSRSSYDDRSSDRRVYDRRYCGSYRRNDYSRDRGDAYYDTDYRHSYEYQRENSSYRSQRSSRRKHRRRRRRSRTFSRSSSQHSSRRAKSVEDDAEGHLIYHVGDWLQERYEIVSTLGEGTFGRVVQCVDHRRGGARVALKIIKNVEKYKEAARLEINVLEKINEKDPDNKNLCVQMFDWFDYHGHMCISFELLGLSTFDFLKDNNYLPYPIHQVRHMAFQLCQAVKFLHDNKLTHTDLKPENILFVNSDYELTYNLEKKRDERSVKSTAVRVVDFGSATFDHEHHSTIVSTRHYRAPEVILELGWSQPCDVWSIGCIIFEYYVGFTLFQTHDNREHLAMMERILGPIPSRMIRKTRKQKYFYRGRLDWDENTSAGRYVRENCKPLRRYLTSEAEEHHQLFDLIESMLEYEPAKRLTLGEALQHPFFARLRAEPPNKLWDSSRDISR
The experiment in a line: Z'-LYTE kinase assay, inhibitory activity for CLK2 kinase. The class given is biochemical. To be noted: compound concentration of 100 nM, read-out: Degree of inhibition (%). The protocol: as §1

The subject of a further test is MV4-11 cell line. The test can be described thus: Inhibitory activity in cell growth, MTS test, MV4-11. Type of test: cell-based. To be noted: Homo sapiens, 72 h, incubation three days. The protocol: MV4-11 cell line was incubated in an IMDM medium (10% FBS) at a temperature of 37° C. The incubated cell line was prepared in an amount of 2×10^4 cells/100 μL, and then plated on 96-well plates. The IMDM medium was treated with cascade dilution of the test compounds at a concentration in a range of 1 μM to 0.01 nM at a rate of 1/10. Subsequently, incubation was performed thereon for three days. MTS test was performed to measure cell viability, and the 50% growth inhibition (GI50) value of the cell line was calculated using GraphPad Prism software.

The GI50 is the concentration giving 50% growth inhibition. In the test with RS4-11 cell line, `COc1ccc2c(-c3nc(Nc4cc(C5CC5)cc(N5CCN(CCO)CC5)c4)ncc3Cl)c[nH]c2c1` [Example 7, 2-(4-(3-((5-chloro-4-(6-methoxy-1H-indole-3-yl)pyrimidine-2-yl)amino)-5-cyclopropylphenyl)piperazine-1-yl)ethane-1-ol] had a concentration for 50% growth inhibition (GI50) of 33 nM.
What is called inhibition is the change of the read-out against control, counted positive when it falls. Take `Cc1ccc2c(-c3nc(Nc4cc(C5CC5)cc(N5CCN(CCO)CC5)c4)ncc3Cl)c[nH]c2c1` [Example 2, 2-(4-(3-((5-chloro-4-(6-methyl-1H-indole-3-yl)pyrimidine-2-yl)amino)-5-cyclopropylphenyl)piperazine-1-yl)ethane-1-ol]: the inhibition at 0.1 µM on NUAK1 (ARK5) kinase is 71%; on AXL kinase it was 56%; on VEGFR2 (KDR) kinase it was 46%; at CLK2 kinase it was 91%.
`Cc1ccc2c(-c3nc(Nc4cc(O[C@@H]5CCN(CCO)C5)cc(C5CC5)c4)ncc3Cl)c[nH]c2c1` [Example 53, (R)-2-(3-(3-((5-chloro-4-(6-methyl-1H-indole-3-yl)pyrimidine-2-yl)amino)-5-cyclopropylphenoxy)pyrrolidine-1-yl)ethane-1-ol] had a GI50 in the test with MV4-11 cell line of 1.1 nM.
With `Cc1ccc2c(-c3nc(Nc4cc(C5CC5)cc(N5CCN(C(C)(C)CO)CC5)c4)ncc3Cl)c[nH]c2c1` [Example 17, 2-(4-(3-((5-chloro-4-(6-methyl-1H-indole-3-yl)pyrimidine-2-yl)amino)-5-cyclopropylphenyl)piperazine-1-yl)-2-methylpropane-1-ol], the inhibition at 0.1 µM came to 72% at NUAK1 (ARK5) kinase, 66% on AXL kinase, 67% on VEGFR2 (KDR) kinase and 93% on CLK2 kinase.
On the same counts, the results for `CC(C)(CO)N1CCN(Cc2cc(Nc3ncc(Cl)c(-c4c[nH]c5ccccc45)n3)cc(C3CC3)c2)CC1` [Example 38, 2-(4-(3-((5-chloro-4-(1H-indole-3-yl)pyrimidine-2-yl)amino)-5-cyclopropylbenzyl)piperazine-1-yl)-2-methylpropane-1-ol] are 63%, 51%, 99% and 97%.
`CCc1cc(Nc2ncc(Cl)c(-c3c[nH]c4cc(C)ccc34)n2)cc(OCCN2CCC(O)CC2)c1` [Example 52] had a GI50 in the test on MV4-11 cell line of 0.8 nM.
`OCCN1CCN(c2cc(Nc3ncc(Cl)c(-c4c[nH]c5cc(F)ccc45)n3)cc(C3CC3)c2)CC1` [Example 1, 2-(4-(3-((5-chloro-4-(6-fluoro-1H-indole-3-yl)pyrimidine-2-yl)amino)-5-cyclopropylphenyl)piperazine-1-yl)ethane-1-ol] registered a GI50 with RS4-11 cell line of 147 nM. The inhibition at 0.1 µM worked out at 84% at NUAK1 (ARK5) kinase, 52% on AXL kinase, 71% at VEGFR2 (KDR) kinase and 99% on CLK2 kinase.
`CN(C)C1CCN(c2cccc(Nc3ncc(Cl)c(-c4c[nH]c5ccccc45)n3)c2)C1` (centres unmarked) [Example 30, 5-chloro-N-(3-(3-(dimethylamino)pyrrolidine-1-yl)phenyl)-4-(1H-indole-3-yl)pyrimidine-2-amine] yielded a GI50 in the test with MV4-11 cell line of 0.8 nM.
Same read-out and setting: under `COc1cc(Nc2ncc(Cl)c(-c3c[nH]c4ccccc34)n2)cc(C(=O)N2CCN(CCO)CC2)c1` [Example 50, (3-((5-chloro-4-(1H-indole-3-yl)pyrimidine-2-yl)amino)-5-methoxyphenyl)(4-(2-hydroxyethyl)piperazine-1-yl)methanone] stands 1.2 nM.
Regarding `Cc1ccc2c(-c3nc(Nc4cc(C5CC5)cc(N5CCC(N(C)C)C5)c4)ncc3Cl)c[nH]c2c1` (centres unmarked) [Example 16, 5-chloro-N-(3-cyclopropyl-5-(3-(dimethylamino)pyrrolidine-1-yl)phenyl)-4-(6-methyl-1H-indole-3-yl)pyrimidine-2-amine], the inhibition at 0.1 µM was 67% at NUAK1 (ARK5) kinase, 27% at AXL kinase, 56% on VEGFR2 (KDR) kinase and 77% at CLK2 kinase.
Regarding `Cc1ccc2c(-c3nc(Nc4cc(CN5CCN(C(C)(C)CO)CC5)cc(C5CC5)c4)ncc3Cl)c[nH]c2c1` [Example 41, 2-(4-(3-((5-chloro-4-(6-methyl-1H-indole-3-yl)pyrimidine-2-yl)amino)-5-cyclopropylbenzyl)piperazine-1-yl)-2-methylpropane-1-ol], the inhibition at 0.1 µM turned out to be 50% at AXL kinase and 63% on VEGFR2 (KDR) kinase.
As for `Cc1ccc2c(-c3nc(Nc4cc(C5CC5)cc(N5CCC(N(C)C)CC5)c4)ncc3Cl)c[nH]c2c1` [Example 6, 5-chloro-N-(3-cyclopropyl-5-(4-(dimethylamino)piperidine-1-yl)phenyl)-4-(6-methyl-1H-indole-3-yl)pyrimidine-2-amine], the inhibition at 0.1 µM is 57% at NUAK1 (ARK5) kinase, 49% at AXL kinase, 62% on VEGFR2 (KDR) kinase and 66% at CLK2 kinase.
